This passage reports IC50, EC90 and CC50 results from ChEMBL document CHEMBL1141079, “Cytostatic 6-arylpurine nucleosides. 6. SAR in anti-HCV and cytostatic activity of extended series of 6-hetarylpurine ribonucleosides” (J Med Chem, 2005).

In assay [1] the test system is HeLa. The assay can be described thus: In vitro inhibitory concentration against human cervix carcinoma HeLaS3 cell line; n.a. is not active. It counts as functional, cell-based.
The subject of assay [2] is L1210. Description: In vitro inhibitory concentration against mouse leukemia L1210 cell line; n.a. is not active. It counts as functional, cell-based.
A further assay deals with Hepatitis C virus. The assay can be described thus: Effective concentration required to reduce Hepatitis C virus. The assay is classed as functional, Hepacivirus hominis.
The next assay relates to CCRF-CEM. The assay can be described thus: In vitro inhibitory concentration against human T lymphoblastoid CCRF-CEM cell line. The assay is classed as functional, cell-based.
Assay [3] has as its system HL-60. Description: In vitro inhibitory concentration against human promyelocytic leukemia HL60 cell line. The assay is classed as functional, cell-based.
For another assay, the species on record is Homo sapiens. Description: Cytotoxic concentration required to reduce the cellular rRNA level in hepatitis C virus replicon cells. In general terms: In antiviral work, replicon cells carry a viral genome segment that copies itself.
The subject of assay [4] is HL-60. Description: In vitro inhibitory concentration against human promyelocytic leukemia HL60 cell line; n.a. is not active. The assay is classed as functional, cell-based.
Assay [5] relates to HeLa. Description: In vitro inhibitory concentration against human cervix carcinoma HeLaS3 cell line. The assay is classed as functional, cell-based.
In assay [6] the test system is L1210. The assay can be described thus: In vitro inhibitory concentration against mouse leukemia L1210 cell line. It counts as functional, cell-based.
[7] abbreviates: Homo sapiens, CCRF-CEM, read-out: IC50.

SMILES strings stand for the structures.

Regarding `OC[C@H]1OC(n2cnc3c(-c4ccoc4)ncnc32)[C@H](O)[C@@H]1O` (stereo partly drawn), the IC50 (usually the midpoint of a concentration-inhibition curve) with HeLa [1] is “Not Active”; in the assay on L1210 [2], “Not Active”; with CCRF-CEM (setting [7]), 1650 nM; in the assay on HL-60 [3], 3.3 µM. Moreover, in the assay with Hepatitis C virus, the EC90 (commonly the concentration needed for an effect of 90%) was 1.4 µM. In the assay filed under Homo sapiens, the CC50 (commonly the concentration that lowers cell viability or growth by half) turned out to be 6.9 µM.
`Cc1cc(-c2ncnc3c2ncn3C2O[C@H](CO)[C@@H](O)[C@H]2O)on1` (stereo partly drawn): the IC50 result with HeLa [1], in the assay with L1210 [2], with CCRF-CEM (ccrf-cem) and in the assay on HL-60 [4] was “Not Active” in each case. For the same compound, in the assay with Hepatitis C virus, the EC90 is > 100 µM. Moreover, the CC50 in the assay listed under Homo sapiens is > 100 µM.
In the assay on Hepatitis C virus, `OC[C@H]1OC(n2cnc3c(-c4ccc(F)cc4)ncnc32)[C@H](O)[C@@H]1O` (stereo partly drawn) gave an EC90 of 49.5 µM. The IC50 in the assay with CCRF-CEM (setting [7]) is 700 nM; with HL-60 [3], 6.3 µM; with HeLa [5], 2.7 µM. Besides, the midpoint of cytotoxicity in the assay filed under Homo sapiens, the CC50, lay at 9.2 µM.
With `Cc1csc(-c2ncnc3c2ncn3C2O[C@H](CO)[C@@H](O)[C@H]2O)c1` (stereo partly drawn), the IC50 entry in the assay with L1210 [2] is “Not Active”; in the assay on CCRF-CEM (setting [7]) it was 2900 nM; in the assay on HL-60 [3] it was 5.6 µM; with HeLa [5], 11.4 µM. Besides, it took 40.7 µM to reach the 90% level with Hepatitis C virus (EC90). For the same compound, the CC50 in the assay filed under Homo sapiens was found to be 7 µM.
In the case of `OC[C@H]1OC(n2cnc3c(-c4ccc(O)cc4)ncnc32)[C@H](O)[C@@H]1O` (stereo partly drawn), in the assay on Hepatitis C virus, the 90% effect level (EC90) was put at 2.6 µM. Besides, the IC50 in the assay with CCRF-CEM (setting [7]) came out at 1250 nM; in the assay with HL-60 [3] it was 7.6 µM; in the assay with L1210 [6], 5 µM; in the assay with HeLa [5] it was 32.5 µM. For the same compound, in the assay filed under Homo sapiens, the CC50 is 5.2 µM.
Consider `OC[C@H]1OC(n2cnc3c(-c4ccccn4)ncnc32)[C@H](O)[C@@H]1O` (stereo partly drawn), for which the EC90 in the assay with Hepatitis C virus is 6 µM. Further, the IC50 with CCRF-CEM (setting [7]) was found to be 900 nM; with HL-60 [3], 5.6 µM; in the assay on L1210 [6] it was 4.3 µM; in the assay with HeLa [5] it was 9.7 µM. In addition, the CC50 in the assay filed under Homo sapiens came out at 2.7 µM.
`OC[C@H]1OC(n2cnc3c(-c4ccco4)ncnc32)[C@H](O)[C@@H]1O` (stereo partly drawn): the EC90 in the assay with Hepatitis C virus is 0.4 µM. Moreover, the IC50 in the assay on CCRF-CEM (setting [7]) amounted to 600 nM; in the assay on HL-60 [3], 2.7 µM; in the assay with L1210 [6], 2 µM; in the assay on HeLa [5] it was 25 µM. For the same compound, the CC50 in the assay filed under Homo sapiens stood at 1.6 µM.
In the case of `OC[C@H]1OC(n2cnc3c(-c4ccsc4)ncnc32)[C@H](O)[C@@H]1O` (stereo partly drawn), the IC50 entry is “Not Active” in the assay with HeLa [1], 1640 nM in the assay with CCRF-CEM (setting [7]), 3.8 µM in the assay with HL-60 [3] and 10.8 µM in the assay on L1210 [6]. In the assay on Hepatitis C virus, this compound yielded an EC90 of 0.82 µM. Besides, the CC50 in the assay listed under Homo sapiens is < 0.1 µM.
Consider `OC[C@H]1OC(n2cnc3c(-c4cc[nH]c4)ncnc32)[C@H](O)[C@@H]1O` (stereo partly drawn), for which the IC50 result with HeLa [1] is “Not Active”; with CCRF-CEM (setting [7]), 1030 nM; in the assay on HL-60 [3], 3.2 µM; in the assay on L1210 [6], 17.5 µM. In the assay on Hepatitis C virus, this compound displayed an EC90 of 0.14 µM. Also, the CC50 in the assay listed under Homo sapiens was < 0.1 µM.
Take `OC[C@H]1OC(n2cnc3c(-c4nccs4)ncnc32)[C@H](O)[C@@H]1O` (stereo partly drawn): the IC50 entry in the assay on HeLa [1] is “Not Active”; in the assay on CCRF-CEM (setting [7]), 2730 nM; in the assay on HL-60 [3], 6.3 µM; in the assay with L1210 [6], 16 µM. In the assay on Hepatitis C virus, this compound had an EC90 of 6 µM. This compound also registered a CC50 in the assay filed under Homo sapiens of 6.7 µM.
`C[C@@]1(O)[C@H](O)[C@@H](CO)O[C@H]1n1cnc2c(N)ncnc21` gave an EC90 in the assay on Hepatitis C virus of 1.14 µM. The CC50 in the assay listed under Homo sapiens came out at 15 µM.
Regarding `OC[C@H]1OC(n2cnc3c(-c4cc[nH]n4)ncnc32)[C@H](O)[C@@H]1O` (stereo partly drawn), the concentration for half-maximal inhibition (IC50) entry is “Not Active” in the assay with HeLa [1], 750 nM with CCRF-CEM (setting [7]), 1.17 µM in the assay on HL-60 [3] and 19.8 µM in the assay on L1210 [6]. The EC90 in the assay on Hepatitis C virus was determined as 0.8 µM. The compound also yielded a CC50 in the assay filed under Homo sapiens of 0.6 µM.
In turn, `OC[C@H]1O[C@@H](n2cnc3c(-c4cccs4)ncnc32)[C@H](O)[C@@H]1O` returned an EC90 in the assay on Hepatitis C virus of 0.7 µM. Moreover, the IC50 worked out at 600 nM in the assay on CCRF-CEM (setting [7]), 4.9 µM in the assay with HL-60 [3], 0.37 µM with L1210 [6] and 25 µM in the assay with HeLa [5]. In the assay listed under Homo sapiens, this compound had a CC50 of 1.1 µM.
For `OC[C@H]1OC(n2cnc3c(-c4ccc(Cl)cc4)ncnc32)[C@H](O)[C@@H]1O` (stereo partly drawn), the IC50 result in the assay with L1210 [2] and in the assay on HL-60 [4] was “Not Active” each time. Besides, in the assay with Hepatitis C virus, the EC90 is > 100 µM. For the same compound, the CC50 in the assay listed under Homo sapiens was > 100 µM.
Turning to `Cc1ccsc1-c1ncnc2c1ncn2C1O[C@H](CO)[C@@H](O)[C@H]1O` (stereo partly drawn), the IC50 result was “Not Active” with L1210 [2], 2500 nM in the assay with CCRF-CEM (setting [7]), 4.5 µM in the assay with HL-60 [3] and > 20 µM in the assay with HeLa [5]. Further, the EC90 in the assay with Hepatitis C virus is > 100 µM. In addition, in the assay filed under Homo sapiens, the CC50 is > 100 µM.
Turning to `COc1ccc(-c2ncnc3c2ncn3C2O[C@H](CO)[C@@H](O)[C@H]2O)cc1` (stereo partly drawn), the EC90 with Hepatitis C virus was > 100 µM. Half-maximal inhibition in the assay on HL-60 [3] (IC50) was put at 7.6 µM. The CC50 in the assay listed under Homo sapiens was < 10 µM.
For `OC[C@H]1O[C@@H](n2cnc3c(-c4ccccc4)ncnc32)[C@H](O)[C@@H]1O`, in that order: 16.7 µM, 6.3 µM and 8.3 µM.
For `OC[C@H]1OC(n2cnc3c(-c4cc5ccccc5o4)ncnc32)[C@H](O)[C@@H]1O` (stereo partly drawn), the IC50 result in the assay with HeLa [1] was “Not Active”; in the assay with L1210 [2] it was “Not Active”; with CCRF-CEM (setting [7]), 15000 nM; in the assay on HL-60 [4], “Not Active”. Also, the EC90 in the assay with Hepatitis C virus was > 100 µM. Also, the CC50 in the assay filed under Homo sapiens is > 100 µM.
Turning to `Cn1cccc1-c1ncnc2c1ncn2C1O[C@H](CO)[C@@H](O)[C@H]1O` (stereo partly drawn), the IC50 result is “Not Active” in the assay on HeLa [1], “Not Active” in the assay on L1210 [2], 2000 nM in the assay with CCRF-CEM (setting [7]) and 15.7 µM with HL-60 [3]. In addition, in the assay on Hepatitis C virus, the EC90 was > 100 µM. Besides, the CC50 in the assay filed under Homo sapiens was > 100 µM.
Turning to `Cc1csc(-c2ncnc3c2ncn3C2O[C@H](CO)[C@@H](O)[C@H]2O)n1` (stereo partly drawn), the IC50 entry in the assay on HeLa [1] is “Not Active”; with L1210 [2], “Not Active”; with CCRF-CEM (setting [7]), 6000 nM; in the assay on HL-60 [4] it was “Not Active”. Besides, the EC90 in the assay with Hepatitis C virus was > 100 µM. In the assay listed under Homo sapiens, the CC50 is > 100 µM.
Turning to `Cn1nccc1-c1ncnc2c1ncn2C1O[C@H](CO)[C@@H](O)[C@H]1O` (stereo partly drawn), the half-inhibitory concentration (IC50) entry with HeLa [1], in the assay with L1210 [2], in the assay on CCRF-CEM (ccrf-cem) and in the assay on HL-60 [4] was “Not Active” throughout. Besides, the EC90 with Hepatitis C virus is > 100 µM. In addition, the CC50 in the assay listed under Homo sapiens is > 100 µM.
